How the values were obtained:
Test in all cases: selective drug sensitivity score (sDSS, relative to normal bone marrow) (sDSS (score)); higher = more potent and effective on the cell line relative to normal bone marrow cells
Details in all cases: 72 h
[1] = tested on: JURKAT
[2] = tested on: MHH-CALL-3
[3] = tested on: COG-LL-332h
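Further: ALL cell lines in 384-well plates, five doses spanning 10,000-fold, each plate scaled between vehicle and 100 µmol/L benzalkonium chloride controls, sDSS an adapted area-under-curve metric.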

Structure (SMILES): CCNC(=O)C[C@@H]1N=C(c2ccc(Cl)cc2)c2cc(OC)ccc2-n2c(C)nnc21 [Molibresib] (top concentration 10000 nM)
- selective drug sensitivity score [1]: -0.6
- selective drug sensitivity score [2]: 16.7
- selective drug sensitivity score [3]: -2.4

Structure (SMILES): CC(C)(C)c1nc(-c2cccc(NS(=O)(=O)c3c(F)cccc3F)c2F)c(-c2ccnc(N)n2)s1 [Dabrafenib] (top concentration 2500 nM)
- selective drug sensitivity score [1]: 1.08
- selective drug sensitivity score [2]: -1.52
- selective drug sensitivity score [3]: 1.68

Structure (SMILES): COc1cccc2c1C(=O)c1c(O)c3c(c(O)c1C2=O)C[C@@](O)(/C(CO)=N/NC(=O)CCCCCN1C(=O)C=CC1=O)C[C@@H]3O[C@H]1C[C@H](N)[C@H](O)[C@H](C)O1 [Aldoxorubicin] (top concentration 1000 nM)
- selective drug sensitivity score [1]: 1.64
- selective drug sensitivity score [2]: 14.1
- selective drug sensitivity score [3]: 12.1

Structure (SMILES): COc1cc(Nc2ncc3c(n2)-c2ccc(Cl)cc2C(c2c(F)cccc2OC)=NC3)ccc1C(=O)O [Alisertib] (top concentration 10000 nM)
- selective drug sensitivity score [1]: 11.3
- selective drug sensitivity score [2]: 12
- selective drug sensitivity score [3]: 24.8

Structure (SMILES): CCCCCCCCCCCCCCCCOP(=O)([O-])OCC[N+](C)(C)C [Miltefosine] (top concentration 100000 nM)
- selective drug sensitivity score [1]: -1.14
- selective drug sensitivity score [2]: -2.94
- selective drug sensitivity score [3]: 0.76

Structure (SMILES): NC(=O)N1CCC(CC(=O)N2CCC([C@H]3c4ncc(Br)cc4CCc4cc(Cl)cc(Br)c43)CC2)CC1 [Lonafarnib] (top concentration 100000 nM)
- selective drug sensitivity score [1]: 5.74
- selective drug sensitivity score [2]: 4.54
- selective drug sensitivity score [3]: 10.1

Structure (SMILES): CNc1ncc2cc(-c3cc(NC(=O)NCCC(C)(C)C)c(F)cc3C)c(C)nc2n1 (top concentration 10000 nM)
- selective drug sensitivity score [1]: 2.56
- selective drug sensitivity score [2]: 8.66
- selective drug sensitivity score [3]: 9.06

Structure (SMILES): FC(F)(F)c1ccc(CNc2ccc(Cc3c[nH]c4ncc(Cl)cc34)cn2)cn1 [Pexidartinib] (top concentration 10000 nM)
- selective drug sensitivity score [1]: 1.48
- selective drug sensitivity score [2]: -2.22
- selective drug sensitivity score [3]: -2.22

Structure (SMILES): Nc1ccccc1NC(=O)c1ccc(CNC(=O)OCc2cccnc2)cc1 [Entinostat] (top concentration 10000 nM)
- selective drug sensitivity score [1]: 2.68
- selective drug sensitivity score [2]: 11.4
- selective drug sensitivity score [3]: -0.62

Structure (SMILES): CNC(=O)c1cccc(-c2ccc3c(N4CCOC[C@@H]4C)nc(N4CCOC[C@@H]4C)nc3n2)c1 [Vistusertib] (top concentration 10000 nM)
- selective drug sensitivity score [1]: 2.22
- selective drug sensitivity score [2]: 2.12
- selective drug sensitivity score [3]: 4.62

Structure (SMILES): O=C(Nc1cccc(NC(=O)c2cccc(O)c2O)c1)c1cccc(O)c1O [MST-312] (top concentration 10000 nM)
- selective drug sensitivity score [1]: 12.5
- selective drug sensitivity score [2]: -4
- selective drug sensitivity score [3]: 13.1

Structure (SMILES): COc1ccc(COc2cc3oc(=O)c4cc(C(C)O)ccc4c3cc2OC)cc1 (stereo not given) [Palomid-529] (top concentration 10000 nM)
- selective drug sensitivity score [1]: 5.16
- selective drug sensitivity score [2]: -0.24
- selective drug sensitivity score [3]: 0.46

Structure (SMILES): CC(C)[C@@H](CS(=O)(=O)C(C)C)N1C(=O)[C@@](C)(CC(=O)O)C[C@H](c2cccc(Cl)c2)[C@H]1c1ccc(Cl)cc1 [AMG-232] (top concentration 10000 nM)
- selective drug sensitivity score [1]: -8.34
- selective drug sensitivity score [2]: 12.6
- selective drug sensitivity score [3]: 9.26

Structure (SMILES): CN(c1ncccc1CNc1nc(Nc2ccc3c(c2)CC(=O)N3)ncc1C(F)(F)F)S(C)(=O)=O (top concentration 10000 nM)
- selective drug sensitivity score [1]: 1.52
- selective drug sensitivity score [2]: 4.82
- selective drug sensitivity score [3]: 2.02

Structure (SMILES): C[C@@H](Nc1cc(F)cc(F)c1)c1cc(C(=O)N(C)C)cc2c(=O)cc(N3CCOCC3)oc12 [AZD-8186] (top concentration 1000 nM)
- selective drug sensitivity score [1]: -0.26
- selective drug sensitivity score [2]: 3.84
- selective drug sensitivity score [3]: -0.26

Structure (SMILES): CC(C)[C@H](C(=O)Nc1ccc(C(=O)NO)cc1)c1ccccc1 [AR-42] (top concentration 10000 nM)
- selective drug sensitivity score [1]: 5.28
- selective drug sensitivity score [2]: 14.3
- selective drug sensitivity score [3]: 4.68

Structure (SMILES): CC1(C)CCC(c2ccc(Cl)cc2)=C(CN2CCN(c3ccc(C(=O)NS(=O)(=O)c4ccc(N[C@H](CCN5CCOCC5)CSc5ccccc5)c(S(=O)(=O)C(F)(F)F)c4)cc3)CC2)C1 [Navitoclax] (top concentration 10000 nM)
- selective drug sensitivity score [1]: 9.02
- selective drug sensitivity score [2]: 29
- selective drug sensitivity score [3]: 8.42

Structure (SMILES): CO[C@@H]1[C@H](N(C)C(=O)c2ccccc2)C[C@H]2O[C@]1(C)n1c3ccccc3c3c4c(c5c6ccccc6n2c5c31)C(=O)NC4 [Midostaurin] (top concentration 10000 nM)
- selective drug sensitivity score [1]: -1.34
- selective drug sensitivity score [2]: -0.64
- selective drug sensitivity score [3]: 6.26

Structure (SMILES): CCN(CC)CCNC(=O)c1c(C)[nH]c(/C=C2\C(=O)Nc3ccc(-c4csc(-c5ccccc5)n4)cc32)c1C [Amcasertib] (top concentration 10000 nM)
- selective drug sensitivity score [1]: -2.2
- selective drug sensitivity score [2]: -3.2
- selective drug sensitivity score [3]: 7.2

Structure (SMILES): CN(C(=O)c1ccc(F)cc1C(F)(F)F)C1CCN(c2nnc(-c3ccnn3C)c3ccccc23)CC1 [Taladegib] (top concentration 10000 nM)
- selective drug sensitivity score [1]: 2.78
- selective drug sensitivity score [2]: -0.32
- selective drug sensitivity score [3]: 1.08

Structure (SMILES): O=C(Nc1ccc2[nH]nc(-c3ccncc3)c2c1)[C@@H]1CCN(CC(=O)N2CCN(c3ccc(-c4ncccn4)cc3)CC2)C1 (top concentration 10000 nM)
- selective drug sensitivity score [1]: -2.04
- selective drug sensitivity score [2]: 7.16
- selective drug sensitivity score [3]: -0.54

Structure (SMILES): COC12C(COC(N)=O)C3=C(C(=O)C(C)=C(N)C3=O)N1CC1NC12 (stereo in doubt) [Mitomycin_C] (top concentration 10000 nM)
- selective drug sensitivity score [1]: -2.86
- selective drug sensitivity score [2]: -2.86
- selective drug sensitivity score [3]: -2.86

Structure (SMILES): C[C@@H]1COCCN1c1cc(C2([S@](C)(=N)=O)CC2)nc(-c2cc[nH]c3nccc2-3)n1 [AZD6738] (top concentration 25000 nM)
- selective drug sensitivity score [1]: 3.88
- selective drug sensitivity score [2]: 12.2
- selective drug sensitivity score [3]: 8.08

Structure (SMILES): Nc1ccn([C@@H]2O[C@H](CO)[C@@H](O)C2(F)F)c(=O)n1 [Gemcitabine] (top concentration 1000 nM)
- selective drug sensitivity score [1]: 9.16
- selective drug sensitivity score [2]: 13.4
- selective drug sensitivity score [3]: 17.8

Structure (SMILES): O=C(O)c1ccc2c(c1)nc(Nc1cccc(Cl)c1)c1ccncc12 [Silmitasertib] (top concentration 10000 nM)
- selective drug sensitivity score [1]: 3.2
- selective drug sensitivity score [2]: -1.4
- selective drug sensitivity score [3]: 4

Structure (SMILES): C[C@H](Nc1ncnc2nc[nH]c12)c1cc2cccc(Cl)c2c(=O)n1-c1ccccc1 [Duvelisib] (top concentration 500 nM)
- selective drug sensitivity score [1]: -0.94
- selective drug sensitivity score [2]: -0.14
- selective drug sensitivity score [3]: 2.46

Structure (SMILES): Nc1ncnc2c1c(-c1cccc(OCc3ccccc3)c1)cn2[C@H]1C[C@@H](CN2CCC2)C1 [NVP-AEW541] (top concentration 10000 nM)
- selective drug sensitivity score [1]: -4.72
- selective drug sensitivity score [2]: -7.62
- selective drug sensitivity score [3]: -1.52

Structure (SMILES): COc1cc2c(cc1-c1c(C)noc1C)ncc1[nH]c(=O)n([C@H](C)c3ccccn3)c12 [I-BET151] (top concentration 10000 nM)
- selective drug sensitivity score [1]: 0.36
- selective drug sensitivity score [2]: 14.3
- selective drug sensitivity score [3]: -2.24

Structure (SMILES): Cc1[nH]nc(C(F)(F)F)c1Cc1sc2c(c1C(=O)N1C[C@](C)(O)CO1)c(=O)n(C)c(=O)n2C(C)C [AZD3965] (top concentration 1000 nM)
- selective drug sensitivity score [1]: 0
- selective drug sensitivity score [2]: 0
- selective drug sensitivity score [3]: 0

Structure (SMILES): COc1cc(Nc2ncc(F)c(Nc3ccc4c(n3)NC(=O)C(C)(C)O4)n2)cc(OC)c1OC [Tamatinib] (top concentration 10000 nM)
- selective drug sensitivity score [1]: -5.42
- selective drug sensitivity score [2]: -5.42
- selective drug sensitivity score [3]: -0.22

Structure (SMILES): O=C(/C=C\n1cnc(-c2cc(C(F)(F)F)cc(C(F)(F)F)c2)n1)NNc1cnccn1 [Selinexor] (top concentration 10000 nM)
- selective drug sensitivity score [1]: 12.8
- selective drug sensitivity score [2]: 24.5
- selective drug sensitivity score [3]: 9.68

Structure (SMILES): O=C(/C=C/c1cccc(S(=O)(=O)Nc2ccccc2)c1)NO [Belinostat] (top concentration 10000 nM)
- selective drug sensitivity score [1]: 7.6
- selective drug sensitivity score [2]: 17.5
- selective drug sensitivity score [3]: 7.9

Structure (SMILES): CC(C)(C)c1cc(NC(=O)Nc2ccc(Oc3ccnc4[nH]c(=O)cnc34)cc2F)n(-c2ccccc2)n1 (top concentration 25000 nM)
- selective drug sensitivity score [1]: -1.48
- selective drug sensitivity score [2]: -3.58
- selective drug sensitivity score [3]: 2.02

Structure (SMILES): COc1c(C)cnc(Cn2cnc3c(Cl)nc(N)nc32)c1C [BIIB021] (top concentration 10000 nM)
- selective drug sensitivity score [1]: 0.48
- selective drug sensitivity score [2]: 9.58
- selective drug sensitivity score [3]: 8.98

Structure (SMILES): CC(C)Oc1ccc(-c2nn([C@@H](C)c3oc4ccc(F)cc4c(=O)c3-c3cccc(F)c3)c3ncnc(N)c23)cc1F [TGR-1202] (top concentration 2500 nM)
- selective drug sensitivity score [1]: -2.56
- selective drug sensitivity score [2]: -2.56
- selective drug sensitivity score [3]: -1.56

Structure (SMILES): CCn1c(-c2nonc2N)nc2c(C#CC(C)(C)O)ncc(OC[C@H]3CCCNC3)c21 (top concentration 10000 nM)
- selective drug sensitivity score [1]: 7.48
- selective drug sensitivity score [2]: 3.38
- selective drug sensitivity score [3]: 9.28

Structure (SMILES): Nc1ncnc2c1nc(N)n2[C@@H]1O[C@H](CO)[C@@H](O)[C@H]1O [8-amino-adenosine] (top concentration 50000 nM)
- selective drug sensitivity score [1]: -5.42
- selective drug sensitivity score [2]: 5.38
- selective drug sensitivity score [3]: 3.18

Structure (SMILES): Cn1cnc2c(F)c(Nc3ccc(Br)cc3Cl)c(C(=O)NOCCO)cc21 [Selumetinib] (top concentration 10000 nM)
- selective drug sensitivity score [1]: -3.5
- selective drug sensitivity score [2]: 15.4
- selective drug sensitivity score [3]: -2.3

Structure (SMILES): CO[C@H](C(=O)[C@@H](O)[C@@H](C)O)[C@@H]1Cc2cc3cc(O[C@H]4C[C@@H](O[C@H]5C[C@@H](O)[C@H](O)[C@@H](C)O5)[C@@H](O)[C@@H](C)O4)c(C)c(O)c3c(O)c2C(=O)[C@H]1O[C@H]1C[C@@H](O[C@H]2C[C@@H](O[C@H]3C[C@](C)(O)[C@H](O)[C@@H](C)O3)[C@H](O)[C@@H](C)O2)[C@H](O)[C@@H](C)O1 [Plicamycin] (top concentration 10000 nM)
- selective drug sensitivity score [1]: -11.2
- selective drug sensitivity score [2]: 5.34
- selective drug sensitivity score [3]: -6.26

Structure (SMILES): Cn1ncc(Cl)c1-c1cc(C(=O)N[C@H](CN)Cc2ccc(F)c(F)c2)oc1Cl [Uprosertib] (top concentration 10000 nM)
- selective drug sensitivity score [1]: 5.9
- selective drug sensitivity score [2]: -1.4
- selective drug sensitivity score [3]: 5.7

From the supplement of paper PMC8967900
